According to patent US20260248822A1, “METHOD AND COMPOSITION FOR THE TREATMENT OF CANCER” (IMPACT HEALTH GLOBAL LTD., priority 2023, published 2026):
Where two headings read alike, the source gives them in different places.

Legend:
tumors = details: mouse, in vivo; cited from earlier work
4T1 cells = test: MTT cell viability assay in 4T1 cells; format: cell-based, Mouse; details: for cancer cell viability, dose dependence: 4T1 cells, 0.5, 1, 1.5 and 2 mM, compared to the control; for cytotoxicity at 2000 µM: Mus musculus, read-out: reduction of cell viability compared to the control
Description: Mouse breast carcinoma model (4T1 cells) were cultured in the presence of taraxasterol, vitexin, sinigrin or a mixture of all these molecules, at the indicated concentrations (0.5, 1, 1.5, and 2 mM), for 48 hours. Cell viability was determined by MTT colorimetric assay, in which a yellow tetrazole is reduced to purple formazan in living cells. The resultant color was measured at 450 nm. Reduced viability of cancer cells was a marker for the efficacy of the treatment.

human lung cancer cells = details: cited from earlier work
human colon cancer cells = details: cited from earlier work

SMILES | growth of tumors in mice (tumors) | cancer cell viability, dose dependence (4T1 cells; 48 hours) | cytotoxicity at 2000 µM (4T1 cells; 4T1 cells, 2 mM, 48 hours, MTT) [%] | apoptosis in human lung cancer cells (human lung cancer cells) | cytotoxicity at 2000 µM (4T1 cells; 4T1, 48 h) [%] | apoptosis in human colon cancer cells (human colon cancer cells) | tumor growth in human colon cancer cells (human colon cancer cells)
O=c1cc(-c2ccc(O)cc2)oc2c([C@@H]3O[C@H](CO)[C@@H](O)[C@H](O)[C@H]3O)c(O)cc(O)c12 [vitexin, 8-(β-D-glucopyranosyl)-4′,5,7-trihydroxyflavone] | suppresses the growth of tumors | reduced cancer cell viability dose dependently | 20 | induces apoptosis | – | – | –
C=CC/C(=N/OS(=O)(=O)O)S[C@@H]1O[C@H](CO)[C@@H](O)[C@H](O)[C@H]1O [sinigrin, (Z)-N-[1-(β-D-glucopyranosylsulfanyl)but-3-en-1-ylidene] hydroxylamine-O-sulfonic acid] | – | reduced cancer cell viability dose dependently | – | induces apoptosis | 23 | – | –
C=C1CC[C@]2(C)CC[C@]3(C)[C@H](CC[C@@H]4[C@@]5(C)CC[C@H](O)C(C)(C)[C@@H]5CC[C@]43C)[C@H]2[C@@H]1C [taraxasterol, (3S,4aR,6aR,6bR,8aR,12S,12aR,12bR,14aR,14bR)-4,4,6a,6b,8a,12, 14b-heptamethyl-11-methylidenedocosahydropicen-3-ol] | – | reduced cancer cell viability dose dependently | 29 | – | – | induces apoptosis | suppresses tumor growth
